The results in this text go back to patent US8007767B2, “Amino methyl imidazoles and related compounds as C5a receptor modulators” (Novartis International Pharmaceutical Ltd., priority 2002, dated 2011).

pKi: −log10 of the molar value.

The experiment deals with T1, human C5a receptor (Homo sapiens, UniProt P21730).
T1 construct: endogenous in cells; host or cells: U937 cells differentiated with 1 mM dibutyryl cAMP
T1 sequence (P21730 1-350): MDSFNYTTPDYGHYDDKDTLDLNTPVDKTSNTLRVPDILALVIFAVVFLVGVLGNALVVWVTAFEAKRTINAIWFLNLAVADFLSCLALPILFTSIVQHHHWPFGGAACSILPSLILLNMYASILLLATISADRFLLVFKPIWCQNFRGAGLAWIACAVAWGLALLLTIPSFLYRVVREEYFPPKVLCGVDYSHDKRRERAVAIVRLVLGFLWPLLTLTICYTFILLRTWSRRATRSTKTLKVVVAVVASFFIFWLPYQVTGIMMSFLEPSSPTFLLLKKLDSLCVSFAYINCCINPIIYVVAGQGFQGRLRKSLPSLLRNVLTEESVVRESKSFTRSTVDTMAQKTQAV
Kind of experiment: standard assay of C5a receptor mediated calcium mobilization (Example 20). Format: cell-based. Particulars: differentiated U937 cells, read-out: Ki < 1 μM. As for the experimental part:
U937 cells are grown in differentiation media (1 mM dibutyrl cAMP in RPMI 1640 medium containing 10% fetal bovine serum) for 48 hours at 37° C. then reseeded onto 96-well plates suitable for use in a FLIPR™ Plate Reader (Molecular Devices Corp., Sunnyvale Calif.). Cells are grown an additional 24 hours (to 70-90% confluence) before the assay. The cells are then washed once with Krebs Ringer solution. FLUO-3 calcium sensitive dye (Molecular Probes, Inc. Eugene, Oreg.) is added to 10 μg/mL and incubated with the cells at room temperature for 1 to 2 hours. The 96 well plates are then washed to remove excess dye.
C. Assays for the Identification of Receptor Modulatory Agents: Antagonists and Agonists
Those of skill in the art will recognize that the calcium mobilization assay described above may be readily adapted for identifying test compounds as having agonist or antagonist activity, at the human C5a receptor.
For example, in order to identify antagonist compounds, differentiated U937 cells are washed and incubated with Fluo-3 dye as described above. One hour prior to measuring the fluorescence signal, a subset of the cells is incubated with a 1 uM concentration of at least one compound to be tested. The fluorescence response upon the subsequent addition of 0.3 nM (final concentration) human recombinant C5a is monitored using the FLIPR™ plate reader. Antagonist compounds elicit at least a 2-fold decrease in the fluorescence response relative to that measured in the presence of human C5a alone. Preferred antagonist compounds elicit at least a 5-fold, preferably at least a 10-fold, and more preferably at least a 20-fold decrease in the fluorescence response relative to that measured in the presence of human C5a alone.
For `CCCCn1c(CN(Cc2ccccc2)Cc2ccc3c(c2)OCCO3)cnc1C1CCCCC1` [Compound 10, Benzyl-(1-butyl-2-cyclohexyl-3H-imidazol-5-ylmethyl)-(2,3-dihydro-benzo[1,4]dioxin-6-ylmethyl)-amine], the negative logarithm of the Ki (pKi) is greater than 6.00. In the case of `CCCCn1c(N2CCOCC2)nc(Cl)c1CN(Cc1ccc(C(=O)O)cc1)Cc1ccc2c(c1)OCCO2` [Compound 15, 4-{[[(1-butyl-4-chloro-2-morpholin-4-yl-1H-imidazol-5-yl)methyl](2,3-dihydro-1,4-benzodioxin-6-ylmethyl)amino]methyl}benzoic acid] it was greater than 6.00; in that of `CCCCn1c(N2CCOCC2)nc(Cl)c1CN(CCC(C)C)Cc1ccc2c(c1)CCCN2` [Compound 22], greater than 6.00. Take `CCCCN(Cc1c(Cl)nc(N2CCOCC2)n1CCCC)C(C)c1ccc2c(c1)OCCO2` (centres unmarked) [Compound 19, N-[(1-butyl-4-chloro-2-morpholin-4-yl-1H-imidazol-5-yl)methyl]-N-[1-(2,3-dihydro-1,4-benzodioxin-6-yl)ethyl]butan-1-amine]: the pKi is greater than 6.00. With `CCCCn1c(N2CCOCC2)nc(Cl)c1CN(Cc1ccc(C(=O)OC)cc1)Cc1ccc2c(c1)OCCO2` [Compound 14, methyl 4-{[[(1-butyl-4-chloro-2-morpholin-4-yl-1H-imidazol-5-yl)methyl](2,3-dihydro-1,4-benzodioxin-6-ylmethyl)amino]methyl}benzoate], the pKi was greater than 6.00. On to `CCCCN(Cc1ccc2c(c1)OCCO2)Cc1c(Cl)nc(N2CCOCC2)n1CCCC` [Compound 17, N-[(1-butyl-4-chloro-2-morpholin-4-yl-1H-imidazol-5-yl)methyl]-N-(2,3-dihydro-1,4-benzodioxin-6-ylmethyl)butan-1-amine], for which the pKi is greater than 6.00. Consider `CCCCn1c(N2CCOCC2)nc(Cl)c1CN(CCC(C)C)Cc1ccc2c(c1)OCCO2` [Compound 18, N-[(1-butyl-4-chloro-2-morpholin-4-yl-1H-imidazol-5-yl)methyl]-N-(2,3-dihydro-1,4-benzodioxin-6-ylmethyl)-3-methylbutan-1-amine], for which the pKi is greater than 6.00. On to `CCCCn1c(N2CCCCC2)nc(Cl)c1CN(Cc1cccc(OCC)c1)Cc1ccc2c(c1)OCCO2` [Compound 21, 1-(1-butyl-4-chloro-2-piperidin-1-yl-1H-imidazol-5-yl)-N-(2,3-dihydro-1,4-benzodioxin-6-ylmethyl)-N-(3-ethoxybenzyl)methanamine], for which the pKi is greater than 6.00.

On to `CCCCn1c(N2CCOCC2)nc(Cl)c1CN(CCC(C)C)C(C)c1ccc2c(c1)OCCO2` (centres unmarked) [Compound 20, N-{(1-butyl-4-chloro-2-morpholin-4-yl-1H-imidazol-5-yl)methyl]-N-[1-(2,3-dihydro-1,4-benzodioxin-6-yl)ethyl]-3-methylbutan-1-amine], for which the negative-log Ki (pKi) is greater than 6.00. As to `CCCCn1c(CN(Cc2ccccc2)Cc2ccc3c(c2)OCO3)cnc1C1CCCCC1` [Compound 9, Benzo[1,3]dioxol-5-ylmethyl-benzyl(1-butyl-2-cyclohexyl-3H-imidazol-5-ylmethyl)-amine], the pKi is greater than 6.00.

For `CCCCn1c(C2=CCCCC2)nc(-c2ccccc2)c1CN(Cc1ccc2c(c1)OCO2)Cc1ccc2c(c1)OCO2` [Compound 12, 1-(1,3-benzodioxol-5-yl)-N-(1,3-benzodioxol-5-ylmethyl)-N-[(1-butyl-2-cyclohex-1-en-1-yl-4-phenyl-1H-imidazol-5-yl)methyl]methanamine], the pKi is greater than 6.00. Consider `CCCCn1c(C2CC2)nc(-c2ccccc2)c1CN(Cc1ccc2c(c1)OCO2)Cc1ccc2c(c1)OCO2` [Compound 11, 1-(1,3-benzodioxol-5-yl)-N-(1,3-benzodioxol-5-ylmethyl)-N-[(1-butyl-2-cycloproyl-4-phenyl-1H-imidazol-5yl)methyl]methanamine], for which the pKi is greater than 6.00. As for `CCCCN(Cc1ccc2[nH]ccc2c1)Cc1c(Cl)nc(N2CCOCC2)n1CCCC` [Compound 16, N-[(1-butyl-4-chloro-2-morpholin-4-yl-1H-imidazol-5-yl)methyl]-N-(1H-indol-5-ylmethyl)butan-1-amine], the pKi is greater than 6.00. In the case of `CCCCn1c(C2CC=CCC2)nc(-c2ccccc2)c1CN(Cc1ccc2c(c1)OCO2)Cc1ccc2c(c1)OCO2` (centres unmarked) [Compound 13, 1-(1,3-benzodioxol-5-yl)-N-(1,3-benzodioxol-5-ylmethyl)-N-[(1-butyl-2-cyclohex-3-enyl-4-phenyl-1H-imidazol-5-yl)methyl]methanamine], the negative-log Ki (pKi) was greater than 6.00.
